The results in this text go back to EPA's ToxValDB 9.5 (doi:10.2903/j.efsa.2020.6058).

Converted amounts (≈) assume the structure as drawn.

The subject of one data set is Bibionidae. Conditions: chronic/long-term; duration: 28 days; development.
The test system of another data set is Tagia sp. The note with it: chronic/long-term; reproduction.
A further data set has as its system Serinus canaria. Conditions: acute; oral; unspecified; mortality.
The next data set relates to Mus musculus. Conditions: acute; oral; M; mortality.
For the next data set, the system named is Anas platyrhynchos. Conditions: chronic/long-term.
A further data set has as its system Neomysis kadiakensis. The note with it: chronic/long-term; duration: 28 days; development.
The next data set deals with Hypoaspis aculeifer. The note with it: chronic/long-term; reproduction.
A further data set deals with Apis mellifera. The note with it: acute; oral; unspecified; mortality.
For the next data set, the system named is Rattus norvegicus. Conditions: clinical signs.
In a further data set the test system is Typhlodromus pyri. The experiment in a line: LR50; higher = less toxic. Conditions: not reported; mortality.

In general, NOAEL refers to the highest dose or exposure tested at which no adverse effect was seen. As usually defined, the LC50 is the concentration that kills 50% of the test population. Regarding `CC1(C)C(C=C(Cl)Cl)[C@@H]1C(=O)O[C@@H](C#N)c1ccc(F)c(Oc2ccccc2)c1` (stereo partly drawn) [beta-Cyfluthrin], the NOEC stood at 0.0057 µg/L in the data set on Bibionidae; 0.825 mg/kg with Tagia sp.; 0.00041 µg/L in the data set with Neomysis kadiakensis; 0.97 mg/kg in the data set on Hypoaspis aculeifer; 0.0042 µg/L in the data set on Oncorhynchus mykiss (chronic/long-term, duration: 58 days, growth). The values for the LD50 in the data set with Serinus canaria, with Mus musculus and in the data set on Apis mellifera were 170 mg/kg-day, 91 mg/kg-day and 0.05 µg/piece, respectively. In addition, the no-observed-adverse-effect level (NOAEL) in the data set on Anas platyrhynchos was 2.6 mg/kg-day; in the data set with Rattus norvegicus (reproduction developmental) it was 1.39 mg/kg-day; in the data set with Rattus norvegicus (short-term, duration: 28 days), 1 mg/kg-day; in the data set on Rattus norvegicus (subchronic, duration: 13 weeks, inhalation), 0.02 mg/kg-day. Moreover, the LC50 with Oncorhynchus mykiss (acute, mortality) is 0.068 ng/mL (≈ 0.157 nM). The LR50 in the data set on Typhlodromus pyri came out at 0.0025 g/ha.
